We go through 15 compounds from US12049450B2, “Pyridyloxy-carboxylate derivative and preparation method therefor, herbicidal composition, and use” (Qingdao Kingagroot Chemical Compound Co., Ltd., priority 2018, dated 2024).

Structures are written as SMILES.

What all share (test): Post-emergence test experiment (greenhouse pot, spray at 2-3 leaf stage)
Common to all, as to format: in vivo
Common to all, as to conditions: 1000 g/ha; post-emergence spray at 2-3 leaf stage; assessed after 3 weeks; fresh weight inhibition rate

Assay [1] has as its system Galium spurium. The essentials:
(§1)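 Weed seeds sown in soil-filled pots in greenhouse, sprayed at 2-3 leaf stage (2 weeks after sowing) with compound in acetone/tween-80 plus methyl oleate emulsible concentrate (1.5 L/ha) diluted in water. Fresh-weight growth inhibition scored after 3 weeks on 0-5 scale (5: >85%, 0: <5%).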

Assay [2] concerns Digitaria sanguinalis. An outline of the steps:
as §1

Assay [3] concerns Abutilon theophrasti. The essentials:
as §1

The test system of assay [4] is Monochoria vaginalis. The essentials:
as §1

Assay [5] deals with Echinochloa crusgalli. The essentials: as §1

Regarding `CC(Oc1nc(F)c(Cl)c(N)c1Cl)C(=O)SCc1ccc(C#CCF)cc1` (stereo not drawn) [Compound 95], in assay [1], the “Activity level (growth inhibition rate) Galium spurium” value is recorded as 5 (Level 5: the growth inhibition rate is greater than 85%). Also, the “Activity level (growth inhibition rate) Digitaria sanguinalis” value in assay [2] was 5 (Level 5: the growth inhibition rate is greater than 85%). In addition, the “Activity level (growth inhibition rate) Abutilon theophrasti” value in assay [3] is 5 (Level 5: the growth inhibition rate is greater than 85%). For the same compound, the “Activity level (growth inhibition rate) Monochoria Vaginalis” value in assay [4] is reported as 5 (Level 5: the growth inhibition rate is greater than 85%). Further, the “Activity level (growth inhibition rate) Echinochloa crusgalli” value in assay [5] is 5 (Level 5: the growth inhibition rate is greater than 85%).
Regarding `CC(Oc1nc(F)c(Cl)c(N)c1Cl)C(=O)OCc1cccc(OCC(F)(F)F)c1` (stereo not drawn) [Compound 96], in assay [1], the “Activity level (growth inhibition rate) Galium spurium” value is given as 5 (Level 5: the growth inhibition rate is greater than 85%). For the same compound, the “Activity level (growth inhibition rate) Digitaria sanguinalis” value in assay [2] is listed as 5 (Level 5: the growth inhibition rate is greater than 85%). Moreover, the “Activity level (growth inhibition rate) Abutilon theophrasti” value in assay [3] was 5 (Level 5: the growth inhibition rate is greater than 85%). In assay [4], the “Activity level (growth inhibition rate) Monochoria Vaginalis” value is 5 (Level 5: the growth inhibition rate is greater than 85%). The “Activity level (growth inhibition rate) Echinochloa crusgalli” value in assay [5] is given as 5 (Level 5: the growth inhibition rate is greater than 85%).
As to `CC(=O)Nc1ccc(CSC(=O)C(C)Oc2nc(F)c(Cl)c(N)c2Cl)cc1` (stereo not drawn) [Compound 97], the “Activity level (growth inhibition rate) Galium spurium” value in assay [1] is 5 (Level 5: the growth inhibition rate is greater than 85%). In assay [2], the “Activity level (growth inhibition rate) Digitaria sanguinalis” value was 5 (Level 5: the growth inhibition rate is greater than 85%). Moreover, the “Activity level (growth inhibition rate) Abutilon theophrasti” value in assay [3] was 5 (Level 5: the growth inhibition rate is greater than 85%). Besides, the “Activity level (growth inhibition rate) Monochoria Vaginalis” value in assay [4] is given as 5 (Level 5: the growth inhibition rate is greater than 85%). In addition, the “Activity level (growth inhibition rate) Echinochloa crusgalli” value in assay [5] is 5 (Level 5: the growth inhibition rate is greater than 85%).
As to `COC(=O)c1ccc(COC(=O)C(C)Oc2nc(F)c(Cl)c(N)c2Cl)cc1` (stereo not drawn) [Compound 98], in assay [1], the “Activity level (growth inhibition rate) Galium spurium” value is recorded as 5 (Level 5: the growth inhibition rate is greater than 85%). The “Activity level (growth inhibition rate) Digitaria sanguinalis” value in assay [2] is on record as 5 (Level 5: the growth inhibition rate is greater than 85%). The “Activity level (growth inhibition rate) Abutilon theophrasti” value in assay [3] is 5 (Level 5: the growth inhibition rate is greater than 85%). Also, the “Activity level (growth inhibition rate) Monochoria Vaginalis” value in assay [4] is recorded as 5 (Level 5: the growth inhibition rate is greater than 85%). In addition, the “Activity level (growth inhibition rate) Echinochloa crusgalli” value in assay [5] is 5 (Level 5: the growth inhibition rate is greater than 85%).
For `CC(=O)Cc1ccc(COC(=O)C(C)Oc2nc(F)c(Cl)c(N)c2Cl)cc1` (stereo not drawn) [Compound 99], the “Activity level (growth inhibition rate) Galium spurium” value in assay [1] is on record as 5 (Level 5: the growth inhibition rate is greater than 85%). The “Activity level (growth inhibition rate) Digitaria sanguinalis” value in assay [2] is given as 5 (Level 5: the growth inhibition rate is greater than 85%). Also, the “Activity level (growth inhibition rate) Abutilon theophrasti” value in assay [3] is on record as 5 (Level 5: the growth inhibition rate is greater than 85%). In addition, the “Activity level (growth inhibition rate) Monochoria Vaginalis” value in assay [4] is reported as 5 (Level 5: the growth inhibition rate is greater than 85%). Also, the “Activity level (growth inhibition rate) Echinochloa crusgalli” value in assay [5] was 5 (Level 5: the growth inhibition rate is greater than 85%).
Take `CCOCc1cccc(C(C)OC(=O)C(C)Oc2nc(F)c(Cl)c(N)c2Cl)c1` (stereo not drawn) [Compound 100]: the “Activity level (growth inhibition rate) Galium spurium” value in assay [1] is reported as 5 (Level 5: the growth inhibition rate is greater than 85%). Also, the “Activity level (growth inhibition rate) Digitaria sanguinalis” value in assay [2] is listed as 5 (Level 5: the growth inhibition rate is greater than 85%). The “Activity level (growth inhibition rate) Abutilon theophrasti” value in assay [3] was 5 (Level 5: the growth inhibition rate is greater than 85%). Further, the “Activity level (growth inhibition rate) Monochoria Vaginalis” value in assay [4] is reported as 5 (Level 5: the growth inhibition rate is greater than 85%). The “Activity level (growth inhibition rate) Echinochloa crusgalli” value in assay [5] was 5 (Level 5: the growth inhibition rate is greater than 85%).
In the case of `CC(Oc1nc(F)c(Cl)c(N)c1Cl)C(=O)OCc1cccc(CC(N)=O)c1` (stereo not drawn) [Compound 101], in assay [1], the “Activity level (growth inhibition rate) Galium spurium” value was 5 (Level 5: the growth inhibition rate is greater than 85%). In addition, the “Activity level (growth inhibition rate) Digitaria sanguinalis” value in assay [2] was 5 (Level 5: the growth inhibition rate is greater than 85%). The “Activity level (growth inhibition rate) Abutilon theophrasti” value in assay [3] is reported as 5 (Level 5: the growth inhibition rate is greater than 85%). Also, the “Activity level (growth inhibition rate) Monochoria Vaginalis” value in assay [4] is given as 5 (Level 5: the growth inhibition rate is greater than 85%). Moreover, the “Activity level (growth inhibition rate) Echinochloa crusgalli” value in assay [5] was 5 (Level 5: the growth inhibition rate is greater than 85%).
Turning to `CC(Oc1nc(F)c(Cl)c(N)c1Cl)C(=O)OCc1ccc(C2CC2Cl)cc1` (stereo not drawn) [Compound 102], the “Activity level (growth inhibition rate) Galium spurium” value in assay [1] is 5 (Level 5: the growth inhibition rate is greater than 85%). Besides, the “Activity level (growth inhibition rate) Digitaria sanguinalis” value in assay [2] is recorded as 5 (Level 5: the growth inhibition rate is greater than 85%). Besides, the “Activity level (growth inhibition rate) Abutilon theophrasti” value in assay [3] is reported as 5 (Level 5: the growth inhibition rate is greater than 85%). In addition, the “Activity level (growth inhibition rate) Monochoria Vaginalis” value in assay [4] was 5 (Level 5: the growth inhibition rate is greater than 85%). In assay [5], the “Activity level (growth inhibition rate) Echinochloa crusgalli” value is recorded as 5 (Level 5: the growth inhibition rate is greater than 85%).
As for `CCC(=O)Cc1ccc(CSC(=O)C(C)Oc2nc(F)c(Cl)c(N)c2Cl)cc1` (stereo not drawn) [Compound 103], the “Activity level (growth inhibition rate) Galium spurium” value in assay [1] is 5 (Level 5: the growth inhibition rate is greater than 85%). The “Activity level (growth inhibition rate) Digitaria sanguinalis” value in assay [2] is 5 (Level 5: the growth inhibition rate is greater than 85%). In assay [3], the “Activity level (growth inhibition rate) Abutilon theophrasti” value is listed as 5 (Level 5: the growth inhibition rate is greater than 85%). For the same compound, the “Activity level (growth inhibition rate) Monochoria Vaginalis” value in assay [4] was 5 (Level 5: the growth inhibition rate is greater than 85%). Also, the “Activity level (growth inhibition rate) Echinochloa crusgalli” value in assay [5] is reported as 5 (Level 5: the growth inhibition rate is greater than 85%).
As for `CC(=O)c1ccc(CCSC(=O)C(C)Oc2nc(F)c(Cl)c(N)c2Cl)cc1` (stereo not drawn) [Compound 104], in assay [1], the “Activity level (growth inhibition rate) Galium spurium” value was 5 (Level 5: the growth inhibition rate is greater than 85%). Also, in assay [2], the “Activity level (growth inhibition rate) Digitaria sanguinalis” value is 5 (Level 5: the growth inhibition rate is greater than 85%). Further, in assay [3], the “Activity level (growth inhibition rate) Abutilon theophrasti” value was 5 (Level 5: the growth inhibition rate is greater than 85%). The “Activity level (growth inhibition rate) Monochoria Vaginalis” value in assay [4] is on record as 5 (Level 5: the growth inhibition rate is greater than 85%). In assay [5], the “Activity level (growth inhibition rate) Echinochloa crusgalli” value is on record as 5 (Level 5: the growth inhibition rate is greater than 85%).
Consider `CC(Oc1nc(F)c(Cl)c(N)c1Cl)C(=O)OCc1ccc(S(C)(=O)=O)cc1` (stereo not drawn) [Compound 105], for which the “Activity level (growth inhibition rate) Galium spurium” value in assay [1] is given as 5 (Level 5: the growth inhibition rate is greater than 85%). Also, the “Activity level (growth inhibition rate) Digitaria sanguinalis” value in assay [2] was 5 (Level 5: the growth inhibition rate is greater than 85%). Moreover, the “Activity level (growth inhibition rate) Abutilon theophrasti” value in assay [3] was 5 (Level 5: the growth inhibition rate is greater than 85%). Besides, the “Activity level (growth inhibition rate) Monochoria Vaginalis” value in assay [4] is 5 (Level 5: the growth inhibition rate is greater than 85%). The “Activity level (growth inhibition rate) Echinochloa crusgalli” value in assay [5] is given as 5 (Level 5: the growth inhibition rate is greater than 85%).
Regarding `COC(=O)Nc1cccc(CCOC(=O)C(C)Oc2nc(F)c(Cl)c(N)c2Cl)c1` (stereo not drawn) [Compound 107], the “Activity level (growth inhibition rate) Galium spurium” value in assay [1] is given as 5 (Level 5: the growth inhibition rate is greater than 85%). The “Activity level (growth inhibition rate) Digitaria sanguinalis” value in assay [2] is listed as 5 (Level 5: the growth inhibition rate is greater than 85%). For the same compound, the “Activity level (growth inhibition rate) Abutilon theophrasti” value in assay [3] is given as 5 (Level 5: the growth inhibition rate is greater than 85%). For the same compound, the “Activity level (growth inhibition rate) Monochoria Vaginalis” value in assay [4] is on record as 5 (Level 5: the growth inhibition rate is greater than 85%). In addition, the “Activity level (growth inhibition rate) Echinochloa crusgalli” value in assay [5] is recorded as 5 (Level 5: the growth inhibition rate is greater than 85%).
Turning to `CC(Oc1nc(F)c(Cl)c(N)c1Cl)C(=O)OCc1cnccn1` (stereo not drawn) [Compound 121], the “Activity level (growth inhibition rate) Galium spurium” value in assay [1] is 5 (Level 5: the growth inhibition rate is greater than 85%). The “Activity level (growth inhibition rate) Digitaria sanguinalis” value in assay [2] was 5 (Level 5: the growth inhibition rate is greater than 85%). The “Activity level (growth inhibition rate) Abutilon theophrasti” value in assay [3] is 5 (Level 5: the growth inhibition rate is greater than 85%). Moreover, the “Activity level (growth inhibition rate) Monochoria Vaginalis” value in assay [4] is 5 (Level 5: the growth inhibition rate is greater than 85%). The “Activity level (growth inhibition rate) Echinochloa crusgalli” value in assay [5] is 5 (Level 5: the growth inhibition rate is greater than 85%).
In the case of `CC(Oc1nc(F)c(Cl)c(N)c1Cl)C(=O)OCc1cccnn1` (stereo not drawn) [Compound 122], in assay [1], the “Activity level (growth inhibition rate) Galium spurium” value is 5 (Level 5: the growth inhibition rate is greater than 85%). Moreover, the “Activity level (growth inhibition rate) Digitaria sanguinalis” value in assay [2] is reported as 5 (Level 5: the growth inhibition rate is greater than 85%). In addition, the “Activity level (growth inhibition rate) Abutilon theophrasti” value in assay [3] is reported as 5 (Level 5: the growth inhibition rate is greater than 85%). Moreover, in assay [4], the “Activity level (growth inhibition rate) Monochoria Vaginalis” value is 5 (Level 5: the growth inhibition rate is greater than 85%). Also, in assay [5], the “Activity level (growth inhibition rate) Echinochloa crusgalli” value is given as 5 (Level 5: the growth inhibition rate is greater than 85%).
In the case of `CC(Oc1nc(F)c(Cl)c(N)c1Cl)C(=O)SCc1ccnnc1` (stereo not drawn) [Compound 123], the “Activity level (growth inhibition rate) Galium spurium” value in assay [1] is given as 5 (Level 5: the growth inhibition rate is greater than 85%). Also, the “Activity level (growth inhibition rate) Digitaria sanguinalis” value in assay [2] was 5 (Level 5: the growth inhibition rate is greater than 85%). Further, the “Activity level (growth inhibition rate) Abutilon theophrasti” value in assay [3] is 5 (Level 5: the growth inhibition rate is greater than 85%). For the same compound, the “Activity level (growth inhibition rate) Monochoria Vaginalis” value in assay [4] is reported as 5 (Level 5: the growth inhibition rate is greater than 85%). Besides, in assay [5], the “Activity level (growth inhibition rate) Echinochloa crusgalli” value is 5 (Level 5: the growth inhibition rate is greater than 85%).
